# According to ChEMBL document CHEMBL4680331, “Ancistrobrevidines A-C and related naphthylisoquinoline alkaloids with cytotoxic activities against HeLa and pancreatic cancer cells, from the liana Ancistrocladus abbreviatus” (Bioorg Med Chem, 2021):
# What was measured:
# [1] = tested on: PANC-1; test: Inhibition of cell migration in human PANC1 cells assessed as open wound area at 20 uM cultured in nutrient rich DMEM medium measured after 24 hrs by quantitative real-time imaging based wound healing assay (reference value: 50%); format: functional; set-up: scale not given: the % may be the effect or the level left
# [2] = tested on: PANC-1; test: Inhibition of cell migration in human PANC1 cells assessed as open wound area at 40 uM cultured in nutrient rich DMEM medium measured after 48 hrs by quantitative real-time imaging based wound healing assay relative to control; format: functional; set-up: scale not given: the % may be the effect or the level left
# [3] = tested on: PANC-1; test: Inhibition of cell migration in human PANC1 cells assessed as open wound area at 40 uM cultured in nutrient rich DMEM medium measured after 24 hrs by quantitative real-time imaging based wound healing assay (reference value: 50%); format: functional; set-up: scale not given: the % may be the effect or the level left
# [4] = tested on: PANC-1; test: Inhibition of colony formation in human PANC-1 cells at 40 uM cultured in nutrient rich DMEM medium measured after 24 hrs by crystal violet staining based assay relative to control; format: functional
# [5] = tested on: PANC-1; test: Anti-austerity activity against nutrient-deprived human PANC-1 cells assessed as cell death incubated for 24 hrs by WST-8 assay; format: functional
# [6] = tested on: HeLa; test: Cytotoxicity against human HeLa cells assessed as decrease in cell viability measured after 72 hrs by WST-8 assay; format: functional, cell-based
# [7] = tested on: PANC-1; test: Inhibition of colony formation in human PANC-1 cells at 10 uM cultured in nutrient rich DMEM medium measured after 24 hrs by crystal violet staining based assay relative to control; format: functional
# [8] = tested on: PANC-1; test: Inhibition of cell migration in human PANC1 cells assessed as open wound area at 20 uM cultured in nutrient rich DMEM medium measured after 48 hrs by quantitative real-time imaging based wound healing assay relative to control; format: functional; set-up: scale not given: the % may be the effect or the level left
# [9] = tested on: PANC-1; test: Inhibition of colony formation in human PANC-1 cells at 20 uM cultured in nutrient rich DMEM medium measured after 24 hrs by crystal violet staining based assay relative to control; format: functional
# [10] = tested on: PANC-1; test: Induction of morphological changes in human PANC-1 cells cultured in nutrient-deprived medium assessed as cell death at 20 uM measured after 24 hrs by ethidium bromide/acridine orange staining based phase contrast microscopy relative to control; format: functional
# [11] = tested on: PANC-1; test: Cytotoxicity against nutrient-rich DMEM cultured human PANC-1 cells incubated for 24 hrs by WST-8 assay; format: cell-based; conditions: panc-1, 24 h
Structure (SMILES),PC50 [5],IC50 [6],further results
COc1cc(OC)c(-c2ccc(O)c3c(OC)cc(C)cc23)c2c1C(C)=N[C@@H](C)C2,13.3 µM,7.2 µM,Activity [1]: 62%; Activity [2]: 70%; Activity [3]: 77%; inhibition at 40 µM [4]: 100%; Activity [6]: Dose-dependent effect; inhibition at 10 µM [7]: 63%; Activity [8]: 25%; inhibition at 20 µM [9]: 95%; Activity [10]: 100%; Activity [11]: Non-Toxic
COc1cc(OC)c(-c2ccc(OC)c3c(OC)cc(C)cc23)c2c1C(C)=N[C@@H](C)C2 [ANCISTROEALAINE A],18.8 µM,,
COc1cccc2c1C(=O)C(=O)C(C)=C2c1c(OC)cc(O)c2c1C[C@H](C)N[C@H]2C,28.5 µM,84.3 µM,
COc1cc(OC)c(-c2c(C)cc(OC)c3c(OC)cccc23)c2c1C(C)=N[C@H](C)C2,64.5 µM,46.9 µM,
COc1cc(C[C@H]2C(=O)OC[C@@H]2Cc2ccc(OC)c(OC)c2)ccc1O [ARCTIGENIN],0.83 µM,,
COc1cc(O)c(-c2c(C)cc(OC)c3c(OC)cccc23)c2c1C(C)=N[C@H](C)C2,46.8 µM,> 100 µM,
